Data on 22 molecules can be found in US9187441B2, “p53-Mdm2 antagonists” (University of Pittsburgh—Of the Commonwealth System of …, priority 2010, dated 2015).

The target of data set [1] is T1, Mdm2 (Homo sapiens (Human), UniProt Q00987). The data set is described as follows: Fluorescence polarization (FP) competition binding assay with Mdm2. For orientation: Polarisation of emitted light reports the rotation of a fluorescent probe.
Method: Fluorescence polarization (FP) assay was employed to measure the binding affinities of small molecules with Mdm2.
Protocol for Fluorescence Polarization (FP) Assay:
Fluorescent polarization experiments were performed as follows. […] The fluorescence intensities parallel (Intparallel) and perpendicular (Intperpedicular) to the plane of excitation were measured in parallel perpendicular black 384-well NBS assay plates (Corning) at room temperature (˜20° C.). […] All fluorescence polarization values were expressed in millipolarization units (mP). […] Competition binding assays were performed using the 10 nM fluorescent P4 peptide and 100 nM Mdm2. Binding constant and inhibition curves were fitted using the SigmaPlot (SPSS Science Software).
Data set [2] can be described thus: Water (aqueous) solubility. It counts as physicochemical.
Data set [3] addresses T1, Mdm2. The data set is described as follows: NMR (AIDA) ligand binding to Mdm2. The note with it: Table 8, Formula II compounds, measured by NMR (AIDA). The protocol:
All NMR spectra were acquired at 298 K on a Bruker DRX 600 MHz spectrometer equipped with a cryoprobe. Typically, NMR samples contained 0.1-0.2 mM protein in 50 mM KH2PO4 and 50 mM Na2HPO4, pH 7.4, containing 150 mM NaCl and 5 mM β-Mercaptoethanol. Water suppression was carried out using the WATERGATE sequence. NMR data were processed using the Bruker program Xwin-NMR version 3.5. NMR ligand binding experiments were carried out in an analogous way to those previously described. See D'Silva L., et. al., J. Am. Chem. Soc. 2005, 127, 13220-13226 and Popowicz G. M., et. al., Cell Cycle. 2007, 6, 2386-2392. The maximum concentration of DMSO at the end of titration experiments was less than 1%. The pH was maintained constant during the entire titration. The 1H-15N-HSQC spectra were recorded using fast HSQC pulse sequence as described by Mori et. al., J. Magn. Reson. B 1995, 108, 94-98.
The binding constants (Ki values), of representative Formula II compounds was determined using fluorescence polarization or NMR spectroscopy and are illustrated in Table 8.

[4] abbreviates: Table 8, Formula II compounds, measured by FP.
Setting [5] is: read-out: Ki (inhibition constant), Table 1, compounds 8 (C-2 ethyl esters), FP assay, n.i. = no interaction.
[6] abbreviates: Table 1, compounds 8 (C-2 ethyl esters), FP assay, n.i. = no interaction.

SMILES strings stand for the structures. Converted amounts (≈) assume the structure as drawn.

T1 sequence (Q00987 whole entry): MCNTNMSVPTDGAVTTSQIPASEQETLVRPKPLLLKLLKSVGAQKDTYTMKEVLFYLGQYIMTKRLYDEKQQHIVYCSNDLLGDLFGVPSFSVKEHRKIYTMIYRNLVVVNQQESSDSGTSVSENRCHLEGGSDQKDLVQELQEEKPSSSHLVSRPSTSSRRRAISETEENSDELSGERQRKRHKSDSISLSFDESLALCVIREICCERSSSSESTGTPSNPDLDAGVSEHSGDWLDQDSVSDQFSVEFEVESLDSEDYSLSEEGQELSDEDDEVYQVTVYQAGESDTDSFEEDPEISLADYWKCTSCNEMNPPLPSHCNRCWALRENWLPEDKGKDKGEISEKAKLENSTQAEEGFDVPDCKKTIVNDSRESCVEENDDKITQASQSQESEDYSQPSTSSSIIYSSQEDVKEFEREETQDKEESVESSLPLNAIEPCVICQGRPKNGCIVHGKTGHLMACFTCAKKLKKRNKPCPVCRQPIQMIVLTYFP

With `CC(C)(C)NC(=O)C(c1c(C(=O)O)[nH]c2cc(Cl)ccc12)N(C=O)Cc1cccc(F)c1` (stereo not shown) [Compound 7C, 3-(2-(tert-butylamino)-1-(N-(3-fluorobenzyl)formamido)-2-oxoethyl)-6-chloro-1H-indole-2-carboxylic acid], at Mdm2 [1], the Ki (as a rule, the dissociation constant of the complex between target and ligand, obtained from inhibition or displacement) came out at 0.81 µM.
Take `CCOC(=O)c1[nH]c2cc(Cl)ccc2c1C(N[C@@H](CC(C)C)C(=O)NCCN1CCOCC1)C(=O)NCc1ccccc1` (stereo partly drawn) [KK242, Ethyl 3-(2-(benzylamino)-1-(((S)-4-methyl-1-((2-morpholinoethyl)amino)-1-oxopentan-2-yl)amino)-2-oxoethyl)-6-chloro-1H-indole-2-carboxylate]: the Ki at Mdm2 [1] (setting [4]) turned out to be 10 µM.
`CC(C)(C)NC(=O)C(c1c(C(=O)O)[nH]c2cc(Cl)ccc12)N(C=O)Cc1ccccc1F` (stereo not shown) [Compound 7D, 3-(2-(tert-butylamino)-1-(N-(2-fluorobenzyl)formamido)-2-oxoethyl)-6-chloro-1H-indole-2-carboxylic acid] had an inhibition constant Ki at Mdm2 [1] of 1.7 µM.
As for `CCOC(=O)c1[nH]c2cc(Cl)ccc2c1C(C(=O)NCc1ccccc1)N(CC(C)C)C(C)=O` (stereo not shown) [Compound 8c, Ethyl 3-(2-(benzylamino)-1-(N-isobutylacetamido)-2-oxoethyl)-6-chloro-1H-indole-2-carboxylate], the inhibition constant Ki on Mdm2 [1] (setting [5]) is 4 µM.
In the case of `CC(C)(C)NC(=O)C(c1c(C(=O)O)[nH]c2cc(Cl)ccc12)N(C=O)Cc1cc(F)c(F)c(F)c1` (stereo not shown) [Compound 7M, 3-(2-(tert-butylamino)-2-oxo-1-(N-(3,4,5-trifluorobenzyl)formamido)ethyl)-6-chloro-1H-indole-2-carboxylic acid], the concentration in solution in data set [2] (aqueous medium) (solubility) came to 850 µg/mL (≈ 1710 µM).
Consider `CC(C)(C)NC(=O)C(c1c(C(=O)O)[nH]c2cc(Cl)ccc12)N(C=O)Cc1ccc(-c2ccccc2)cc1` (stereo not shown) [Compound 9s, 3-(1-(N-(biphenyl-4-ylmethyl)formamido)-2-(tert-butylamino)-2-oxoethyl)-6-chloro-1H-indole-2-carboxylic acid], for which the Ki at Mdm2 [1] (read-out: Ki (inhibition constant), Table 2, compounds 9 (free C-2 carboxylic acids), FP assay) stood at 2.5 µM.
At Mdm2 [1] (setting [4]), `CC(C)CC(NC(C(=O)NCc1ccccc1)c1c(C(=O)O)[nH]c2cc(Cl)ccc12)C(=O)NCCCN1CCOCC1` (stereo not shown) [KK279, 3-(2-(benzylamino)-1-((4-methyl-1-((3-morpholinopropyl)amino)-1-oxopentan-2-yl)amino)-2-oxoethyl)-6-chloro-1H-indole-2-carboxylic acid] displayed a Ki of 7 µM.
With `COc1ccc(C2=N[C@@H](c3ccc(Cl)cc3)[C@@H](c3ccc(Cl)cc3)N2C(=O)N2CCNC(=O)C2)c(OC(C)C)c1` [Nutlin-3a, reference compound], the aqueous solubility – broadly, the dissolved amount per volume that the medium holds – in data set [2] turned out to be 0.1 mg/mL (≈ 172 µM).
In turn, `CCOC(=O)c1[nH]c2cc(Cl)ccc2c1C(NC(CC(C)C)C(=O)O)C(=O)NCc1ccccc1` (stereo not shown) [KK272, 2-((2-(benzylamino)-1-(6-chloro-2-(ethoxycarbonyl)-1H-indol-3-yl)-2-oxoethyl)amino)-4-methylpentanoic acid] yielded a Ki on Mdm2 [1] (setting [4]) of 1.4 µM.
For the molecule `CCOC(=O)c1[nH]c2cc(Cl)ccc2c1C(C(=O)NCc1ccccc1)N(Cc1ccccc1)C(C)=O` (stereo not shown) [Compound 8d, Ethyl 3-(1-(N-benzylacetamido)-2-(benzylamino)-2-oxoethyl)-6-chloro-1H-indole-2-carboxylate], the Ki on Mdm2 [1] (read-out: Ki (inhibition constant)) was 6 µM.
With `CCOC(=O)c1[nH]c2cc(Cl)ccc2c1C(NC(CC(C)C)C(=O)OC)C(=O)NCc1ccccc1` (stereo in doubt) [KK229, Ethyl 3-(2-(benzylamino)-1-(((R)-1-methoxy-4-methyl-1-oxopentan-2-yl)amino)-2-oxoethyl)-6-chloro-1H-indole-2-carboxylate], the Ki on Mdm2 [3] was 1700 nM.
Turning to `CCOC(=O)c1[nH]c2cc(Cl)ccc2c1C(C(=O)NC(C)(C)C)N(C=O)Cc1ccc(-c2ccccc2)cc1` (stereo not shown) [Compound 8s, Ethyl 3-(1-(N-(biphenyl-4-ylmethyl)formamido)-2-(tert-butylamino)-2-oxoethyl)-6-chloro-1H-indole-2-carboxylate], at Mdm2 [1] (setting [6]), the “Ki (inhibition constant)” value is on record as “n.i”.
Regarding `CC(C)CC(NC(C(=O)NCc1ccccc1)c1c(C(=O)O)[nH]c2cc(Cl)ccc12)C(=O)NCCN1CCOCC1` (stereo not shown) [KK273, 3-(2-(benzylamino)-1-(4-methyl-1-(2-morpholinoethylamino)-1-oxopentan-2-ylamino)-2-oxoethyl)-6-chloro-1H-indole-2-carboxylic acid], on Mdm2 [3], the Ki was 400 nM.
Consider `CCOC(=O)c1[nH]c2cc(Cl)ccc2c1C(NC(CC(C)C)C(=O)NCCO)C(=O)NCc1ccccc1` (stereo in doubt) [KK259, Ethyl 3-(2-(benzylamino)-1-(((S)-1-((2-hydroxyethyl)amino)-4-methyl-1-oxopentan-2-yl)amino)-2-oxoethyl)-6-chloro-1H-indole-2-carboxylate], for which the inhibitory constant (Ki) on Mdm2 [1] (setting [4]) stood at 9 µM.
Still for that read-out and setting: with `CC(C)CC(NC(C(=O)NCc1ccccc1)c1c(C(=O)O)[nH]c2cc(Cl)ccc12)C(=O)NCCO` (stereo not shown) [KK278, 3-(2-(benzylamino)-1-((1-((2-hydroxyethyl)amino)-4-methyl-1-oxopentan-2-yl)amino)-2-oxoethyl)-6-chloro-1H-indole-2-carboxylic acid] the figure was 9 µM.
In the case of `CCOC(=O)c1[nH]c2cc(Cl)ccc2c1C(C(=O)NC1CCCCC1)N(C=O)Cc1ccc(F)cc1` (stereo not shown) [Compound 8k, Ethyl 6-chloro-3-(2-(cyclohexylamino)-1-(N-(4-fluorobenzyl)formamido)-2-oxoethyl)-1H-indole-2-carboxylate], the Ki at Mdm2 [1] (setting [5]) is 30 µM.
As for `CCOC(=O)c1[nH]c2cc(Cl)ccc2c1C(NC(CC(C)C)C(=O)NCCCN1CCOCC1)C(=O)NCc1ccccc1` (stereo in doubt) [KK261, Ethyl 3-(2-(benzylamino)-1-(((S)-4-methyl-1-((3-morpholinopropyl)amino)-1-oxopentan-2-yl)amino)-2-oxoethyl)-6-chloro-1H-indole-2-carboxylate], the Ki at Mdm2 [1] (setting [4]) came to 11 µM.
In the case of `CC(C)(C)NC(=O)C(c1c(C(=O)O)[nH]c2cc(Cl)ccc12)N(C=O)Cc1cc(F)ccc1F` (stereo not shown) [Compound 7H, 3-(2-(tert-butylamino)-1-(N-(2,5-difluorobenzyl)formamido)-2-oxoethyl)-6-chloro-1H-indole-2-carboxylic acid], the affinity at Mdm2 [1] corresponds to a Ki of 2.5 µM.
`CCOC(=O)c1[nH]c2cc(Cl)ccc2c1C(C(=O)NC1CCCCC1)N(C=O)Cc1ccc(Cl)cc1` (stereo not shown) [Compound 8j, Ethyl 6-chloro-3-(1-(N-(4-chlorobenzyl)formamido)-2-(cyclohexylamino)-2-oxoethyl)-1H-indole-2-carboxylate]: the Ki on Mdm2 [1] (setting [5]) worked out at 50 µM.
`CCOC(=O)c1[nH]c2cc(Cl)ccc2c1C(N[C@H](C(=O)OC)C(C)C)C(=O)NCc1ccccc1` (stereo partly drawn) [KK228, Ethyl 3-(2-(benzylamino)-1-(((S)-1-methoxy-3-methyl-1-oxobutan-2-yl)amino)-2-oxoethyl)-6-chloro-1H-indole-2-carboxylate] showed a Ki on Mdm2 [1] (setting [4]) of less than 1 µM.
Consider `CCOC(=O)c1[nH]c2cc(Cl)ccc2c1C(C(=O)NC1CCCCC1)N(Cc1ccc(Cl)c(Cl)c1)C(C)=O` (stereo not shown) [Compound 8g, Ethyl 6-chloro-3-(2-(cyclohexylamino)-1-(N-(3,4-dichlorobenzyl)acetamido)-2-oxoethyl)-1H-indole-2-carboxylate], for which, at Mdm2 [1] (setting [5]), the Ki was 9 µM.
Consider `CCOC(=O)c1[nH]c2cc(Cl)ccc2c1C(C(=O)NC(C)(C)C)N(C=O)Cc1ccc(Oc2ccccc2)cc1` (stereo not shown) [Compound 8t, Ethyl 3-(2-(tert-butylamino)-2-oxo-1-(N-(4-phenoxybenzyl)formamido)ethyl)-6-chloro-1H-indole-2-carboxylate], for which the “Ki (inhibition constant)” value at Mdm2 [1] (setting [6]) is given as “n.i”.
